Test results as given in US4861771A, “Carbamates of 6-chloro-7,8-dihydroxy-1-(4'-hydroxyphenyl)-2,3,4,5-tetrahydro-1H-3-benz azepine as prodrugs” (priority 1989, dated 1989).
Counter-ions that a name gives are not always drawn. Each block holds one compound with its values, some of them ahead of it.

Columns and labels:
[1] = plasma fenoldopam levels in dogs; type: in vivo, female mongrel dogs
Description: (§1) The renal blood flow of the compounds of Formula 1 was readily measured in female mongrel dogs which underwent chronic implantation of a renal flow probe and arterial Vascular-Acess-Port. Briefly, the dogs were anesthetizied and using standard asceptic techniques, a Transonic flow probe was placed around the left renal artery and the connector tunneled subcutaneously to the back of the dog. The Vascular-Access-Port was placed in the left femoral artery and the access portion tacked to the underlying muscle in the area of the paralumbar-fossa. The patency of the Vascular Access Port was maintained by weekly flushing of the catheter and locking with a 50% glucose 500 U/ml heparinized solution. Dogs were trained to lie quietly restrained on a board and the connector portion of the flow probe was exteriorized under local anesthesia and connected to a Transonic flowmeter. Renal blood flow was recorded continuously on a Gilson chart recorder. Mean arterial pressure was monitored directly from the Vascular-Access-Port using a 23 gauge butterfly. Mean arterial blood pressure and renal blood flow were recorded before and for 6 hr. after the oral or i.v. administration of the R-enantiomers of the parent compound (fenoldopam) and the prodrug of fenoldopam. At the end of the experiment, the flow probe connector was returned to its subcutaneous position and the skin incision closed with chromic gut and skin staples. The VAP was again flushed and a fresh heparin glucose lock established. Standard sterile procedures followed during the removal and replacement of the flow probe connector.
During the experiment post drug blood samples were withdrawn periodically in order to determine the plasma levels of the parent drug, i.e., fenoldopam plasma levels.

renal blood flow = renal blood flow in chronically instrumented (flow probe) dogs; type: in vivo, female mongrel dogs; details: oral
Description: as §1
The effect was transient and renal blood flow had returned to control values within 60 minutes.

[2] = cited from earlier work

SMILES: CCNC(=O)Oc1ccc([C@H]2CNCCc3c2cc(OC(=O)NCC)c(OC(=O)NCC)c3Cl)cc1 [Example 3, (R)-6-chloro-7,8-diethylcarbamoyl-(4'-ethylcarbamoylphenyl)-2,3,4,5-tetrahydro-1H-3-benzazepine hydrochloride]
duration of sustained increase in plasma fenoldopam ([1]; oral, dogs): 4 to 6 h
duration of sustained increase in renal blood flow (renal blood flow; dogs): 4 to 6 h

Tmax ([1]; dog, plasma, oral, 4 dogs, read-out: time of peak plasma fenoldopam level (converted)): 5 min
SMILES: Oc1ccc([C@H]2CNCCc3c2cc(O)c(O)c3Cl)cc1 [R-6-chloro-7,8-dihydroxy-1-(4'-hydroxyphenyl)-2,3,4,5-tetrahydro-1H-3-benzazepine]
renal blood flow effect in words (renal blood flow; 4 dogs): transient
time for renal blood flow to return to control values (renal blood flow; 4 dogs): ≤ 60 min
increase in renal blood flow (renal blood flow; 4 dogs, significant increase): 80%

half-life ([1]; dog, plasma, after oral administration of fenoldopam, dogs): 12 min
SMILES: Oc1ccc(C2CNCCc3c2cc(O)c(O)c3Cl)cc1 (centres unmarked) [fenoldopam, 6-chloro-7,8-dihydroxy-1-(4-hydroxyphenyl) 2,3,4,5-tetrahdyro-1H-3-benzazepine]
initial peak plasma level ([2]; in vivo, po): initial high peak plasma level
bioavailability ([2]; oral): low
first pass metabolism ([2]; oral): high
half life ([2]; reportedly): short
